Measured values: patent US8778982B2, “Synergistic microbicidal compositions” (Rohm and Haas Company, priority 2007, dated 2014)
Where “and” joins values, the source holds several entries; their conditions need not be identical. Identical values can stand only once. Like-named read-outs stand apart in the source and are kept apart here.

Tests used:
Assay type in all cases: cell-based
[1] = tested on: Candida albicans (C. albicans—ATCC 10231); test: Synergy test, microtiter plate high resolution MIC assay, PDB medium, yeast; conditions: for Qb: B alone where Qa = 0
Text: (§1) One measure of synergism is the industrially accepted method described by Kull, F. C.; Eisman, P. C.; Sylwestrowicz, H. D. and Mayer, R. L., in Applied Microbiology 9:538-541 (1961), using the ratio determined by the formula: Qa/QA+Qb/QB=Synergy Index(“SI”) wherein: • QA=concentration of compound A (first component) in ppm, acting alone, which produced an end point (MIC of Compound A). • Qa=concentration of compound A in ppm, in the mixture, which produced an end point. • QB=concentration of compound B (second component) in ppm, acting alone, which produced an end point (MIC of Compound B). • Qb=concentration of compound B in ppm, in the mixture, which produced an end point.
(§2) When the sum of Qa/QA and Qb/QB is greater than one, antagonism is indicated. […] The lower the SI, the greater is the synergy shown by that particular mixture. The minimum inhibitory concentration (MIC) of a microbicide is the lowest concentration tested under a specific set of conditions that prevents the growth of the tested microorganisms.
(§3) Synergy tests were conducted using standard microtiter plate assays with media designed for optimal growth of the test microorganism. Minimal salt medium supplemented with 0.2% glucose and 0.1% yeast extract (M9GY medium) was used for testing bacteria; Potato Dextrose Broth (PDB medium) was used for testing yeast and mold. In this method, a wide range of combinations of microbicides and other personal care raw materials was tested by conducting high resolution MIC assays in the presence of various concentrations of CMIT/MIT, MIT, or BIT. High resolution MICs were determined by adding varying amounts of microbicide to one column of a microtitre plate and doing subsequent […] dilutions using an automated liquid handling system to obtain a series of endpoints ranging from 2 ppm to 10,000 ppm active ingredient.
(§4) The synergy of the combinations of the present invention was determined against a bacterium, Escherichia coli (E. coli—ATCC #8739), a yeast, Candida albicans (C. albicans—ATCC 10231), and a mold, Aspergillus niger (A. niger—ATCC 16404). The bacteria were used at a concentration of about 5×10^6 bacteria per mL and the yeast and mold at 5×10^5 fungi per mL. These microorganisms are representative of natural contaminants in many consumer and industrial applications. […] (yeast and mold) or 30° C. (bacteria).

[2] = tested on: Escherichia coli (E. coli—ATCC #8739); test: Synergy test, microtiter plate high resolution MIC assay, M9GY medium, bacterium; conditions: for Qb: B alone where Qa = 0; for MIC: Escherichia coli, read-out: MIC of the component acting alone (QA or QB)
Text: as §1, §2, §3, §4

[3] = tested on: Aspergillus niger (A. niger—ATCC 16404); test: Synergy test, microtiter plate high resolution MIC assay, PDB medium, mold; conditions: for Qb: B alone where Qa = 0; for MIC: Aspergillus niger, read-out: MIC of the component acting alone (QA or QB)
Text: as §1, §2, §3, §4

[4] = C. albicans 10231 - PDB (6 days), A = MIT, B = Myristamidopropyl PG-dimonium chloride phosphate
[5] = E. coli 8739 - M9GY (1 day), A = MIT, B = Myristamidopropyl PG-dimonium chloride phosphate
[6] = A. niger 16404 - PDB (3 days), A = MIT, B = Myristamidopropyl PG-dimonium chloride phosphate
[7] = C. albicans 10231 - PDB (6 days), A = BIT, B = Caprylic acid
[8] = E. coli 8739 - M9GY (1 day), A = BIT, B = Caprylic acid
[9] = A. niger 16404 - PDB (3 days), A = BIT, B = Caprylic acid

## 1-propanaminium, 3,3′,3″-[phosphinylidynetris(oxy)]-tris-[N-(aminopropyl)-2-hydroxy-N,N-dimethyl-N,N′,N″-tri-C6-18 acyl deriv. trichlorides
[1]; C. albicans 10231, PDB, 1 day
  Synergy Index (SI) = Qa/QA+Qb/QB: 1.00
[1]; C. albicans 10231, PDB, 1 day, 25° C.
  MIC of the component acting alone (QA or QB): 800 ppm
[1]; C. albicans 10231, PDB, 2 days
  MIC of the component acting alone (Qa or Qb with the other component at 0): 2000 ppm
  SI (synergy index): 1.00
[1]; [4]
  SI: 1.00
  Qb: 1000 ppm
[2]; E. coli 8739, M9GY, 1 day
  MIC of the component acting alone (Qa or Qb with the other component at 0): 80 ppm
  SI (synergy index): 1.00
[2]; E. coli 8739, M9GY, 2 days
  Synergy Index (SI) = Qa/QA+Qb/QB: 1.00
[2]; E. coli 8739, M9GY, 2 days, 30° C.
  MIC of the component acting alone (QA or QB): 100 ppm
[2]; [5]
  SI: 1.00
  Qb: 80 ppm
[3]; A. niger 16404, PDB, 3 days
  Synergy Index (SI) = Qa/QA+Qb/QB: 1.00
[3]; A. niger 16404, PDB, 3 days, 25° C.
  MIC of the component acting alone (QA or QB): 2000 ppm
[3]; A. niger 16404, PDB, 4 days
  MIC of the component acting alone (Qa or Qb with the other component at 0): 2000 ppm
  SI (synergy index): 1.00
[3]; [6]
  SI: 1.00
  Qb: 2000 ppm

## O=c1[nH]sc2ccccc12 [BIT, 1,2-benzisothiazolin-3-one]
[1]; C. albicans 10231, PDB, 1 day
  MIC of the component acting alone (Qa or Qb with the other component at 0): 15.00 ppm
  SI (synergy index): 1.00
[1]; C. albicans 10231, PDB, 2 days
  MIC of the component acting alone (Qa or Qb with the other component at 0): 30.00 ppm
  SI (synergy index): 1.00
[1]; C. albicans 10231, PDB, 6 days
  MIC of the component acting alone (Qa or Qb with the other component at 0): 30.00 ppm and 40.00 ppm
  SI (synergy index): 1.00
[1]; [7]
  SI: 1.00
[1]; C. albicans 10231 - PDB (6 days), A = BIT, B = Caprylic acid, A alone where Qb = 0
  Qa: 20 ppm
[2]; E. coli 8739, M9GY, 1 day
  MIC of the component acting alone (Qa or Qb with the other component at 0): 20.00 ppm
  SI (synergy index): 1.00
[2]; E. coli 8739, M9GY, 2 days
  MIC of the component acting alone (Qa or Qb with the other component at 0): 20.00 ppm
  SI (synergy index): 1.00
[2]; [8]
  SI: 1.00
[2]; E. coli 8739 - M9GY (1 day), A = BIT, B = Caprylic acid, A alone where Qb = 0
  Qa: 20 ppm
[3]; A. niger 16404, PDB, 3 days
  MIC of the component acting alone (Qa or Qb with the other component at 0): 50 ppm
  SI (synergy index): 1.00
[3]; A. niger 16404, PDB, 4 days
  MIC of the component acting alone (Qa or Qb with the other component at 0): 50 ppm
  SI (synergy index): 1.00
[3]; A. niger 16404, PDB, 10 days
  MIC of the component acting alone (Qa or Qb with the other component at 0): 100.00 ppm
  SI (synergy index): 1.00
[3]; [9]
  SI: 1.00
[3]; A. niger 16404 - PDB (3 days), A = BIT, B = Caprylic acid, A alone where Qb = 0
  Qa: 50 ppm

## CCCCCCCC(=O)O [Caprylic acid, octanoic acid]
[1]; C. albicans 10231, PDB, 6 days
  Synergy Index (SI) = Qa/QA+Qb/QB: 1.00
[1]; [7]
  SI: 1.00
  Qb: 2000 ppm
[1]; Candida albicans, ATCC10231, 144 h, C. albicans 10231, PDB, 6 days, 25° C., read-out: MIC of the component acting alone (QA or QB)
  MIC: 2000 µg/mL
[2]; E. coli 8739, M9GY, 1 day
  Synergy Index (SI) = Qa/QA+Qb/QB: 1.00
[2]; E. coli 8739, M9GY, 2 days
  Synergy Index (SI) = Qa/QA+Qb/QB: 1.00
[2]; [8]
  SI: 1.00
  Qb: 8000 ppm
[2]; ATCC8739, 24 h, E. coli 8739, M9GY, 1 day, 30° C.
  MIC: 8000 µg/mL
[2]; ATCC8739, 48 h, E. coli 8739, M9GY, 2 days, 30° C.
  MIC: 8000 µg/mL
[3]; A. niger 16404, PDB, 3 days
  Synergy Index (SI) = Qa/QA+Qb/QB: 1.00
[3]; A. niger 16404, PDB, 10 days
  Synergy Index (SI) = Qa/QA+Qb/QB: 1.00
[3]; [9]
  SI: 1.00
  Qb: 2000 ppm
[3]; ATCC16404, 72 h, A. niger 16404, PDB, 3 days, 25° C.
  MIC: 2000 µg/mL
[3]; ATCC16404, 240 h, A. niger 16404, PDB, 10 days, 25° C.
  MIC: 2000 µg/mL
